Reference: patent US11555212B2, “Process for the production of sulfated phenolic compounds using modified Escerichia coli” (CysBio ApS, priority 2016, dated 2023)

Experiments:
[1] = molecular target: T1, SULT1A1 from Rattus norvegicus (Rattus norvegicus, UniProt P17988); test: Percent reduction of phenolic compounds by E. coli KRX expressing a sulfotransferase; format: cell-based; conditions: M9, 0.1 mM IPTG, 0.1% rhamnose, compound 50 μM, overnight 37° C.
T1 construct: 1, 3, 4, 5, and 6 were cloned amplified from liver tissue cDNA; expressed in transfected cells
Experimental: M9 medium containing 0.2% glucose, 0.1 mM IPTG, 0.1% rhamnose, and 100 μg/mL ampicillin was prepared.
The strains described above were grown in 2×YT medium with 100 μg/mL ampicillin overnight before their were used to inoculate the media by 50-fold dilution. The cultures were grown overnight with vigorous shaking at 37° C. […] The compounds were detected by UV absorbance except for 4-methylbelliferone, which was measured by fluorescence.

[2] = molecular target: T2, SULT1A1 from rat (Rattus norvegicus) (Rattus norvegicus, UniProt P17988); test: Percent reduction in concentration of phenolic compounds by E. coli expressing a sulfotransferase, compared to control strain; format: cell-based; conditions: compared to the control strain, M9, 1 mM IPTG, single substrate at start concentration of Table 14, overnight 37° C.; for Percent reduction in concentration, SULT1A1 + CysDNCQ: E. coli BL21(DE3)pLysS expressing SULT1A1 rat + CysDNCQ; for Percent reduction in concentration, SULT1A1: E. coli BL21(DE3)pLysS expressing SULT1A1 rat
T2 construct: 1, 3, 4, 5, and 6 were cloned amplified from liver tissue cDNA; expressed in transfected cells
Experimental: (§1) The concentration of p-courmaric acid (pHCA) and zosteric acid in the supernatant was quantified by high performance liquid chromatography (HPLC) and compared to chemical standards. HPLC was done on a Thermo setup using a HS-F5 column and mobile phases: 5 mM ammonium formate pH 4.0 (A) and acetonitrile (B) at 1.5 mL min-1, using a gradient elution starting at 5% B. From 0.5 min after injection to 7 min, the fraction of B increased linearly from 5% to 60%, and between 9.5 min and 9.6 the fraction of B decreased back to 5%, and remaining there until 12 min. pHCA and zosteric acid were quantified by measuring absorbance at 277 nm.
To further test the range of substrates that can be sulfated, we used strains carrying plasmids expressing SULT1A1 from rat (Rattus norvegicus) and SULT1E1 from chicken (Gallus gallus domesticus) (Example 1) cloned into the expression vector pETDuet-1, and cysDNCQ from E. coli cloned into expression vector pRSFDuet-1 (Example 2). The plasmids were introduced into the E. coli expression strain BL21(DE3)pLysS as described previously, selecting for transformants with appropriate antibiotics, namely 34 μg mL^−1 chloramphenicol for pLysS, 100 μg mL^−1 ampicillin for pETDuet-1-based vectors, and 100 μg mL^−1 kanamycin for pRSFDuet-1-based vectors. […] A control strain without a sulfotransferase gene or cysDNCQ operon was also examined.
The strains were precultured in 2×YT medium with appropriate antibiotics. 10 μL of these precultures were used to inoculate M9 media with 1 mM IPTG and none or a single substrate for sulfation. After overnight growth at 37° C., 300 rpm the supernatants were withdrawn and examined by HPLC as described in Example 1. The compounds were detected by UV absorbance.

[3] = tested on: SULT1E1 from chicken (Gallus gallus domesticus); test: as above; format: cell-based; conditions: E. coli BL21(DE3)pLysS expressing SULT1E1 chicken, compared to the control strain; M9, 1 mM IPTG, single substrate at start concentration of Table 14; overnight 37° C.
[4] = molecular target: T3, SULT1A1 Canis lupus familiaris (Canis lupus familiaris, UniProt Q29476); test: Percent conversion of substrates by E. coli expressing a sulfotransferase; format: cell-based; conditions: E. coli BL21(DE3)pLysS expressing SULT1A1 Canis lupus familiaris; M9; pHCA 100 μM, resveratrol 95 μM or kaempferol 87 μM; overnight 37° C.
T3 construct: 1, 3, 4, 5, and 6 were cloned amplified from liver tissue cDNA; expressed in transfected cells; host or cells: E. coli BL21(DE3)pLysS
Experimental: as §1
(§2) Different sulfotransferases were examined for their substrate specificities against three substrates. We tested the sulfotransferases mentioned in example 1, as well as additional ones. The genes encoding these were cloned as described in example 1 using the primers shown in the table below from cDNA libraries of the respective organisms, except for the SULT1A1 from rat (Rattus norvegicus) codon-optimized for E. coli (described above). The resulting vectors were transformed into BL21(DE3)pLysS.
(§3) The resulting strains were grown in M9 medium containing either 100 μM pHCA, 95 μM resveratrol or 87 μM kaempferol. The cultures were grown overnight at 37° C., 300 rpm. The following day the supernatants were isolated and examined by HPLC as described in example 1.

[5] = tested on: SULT1A1 Equus caballus; test: as above; format: cell-based; conditions: E. coli BL21(DE3)pLysS expressing SULT1A1 Equus caballus; M9; pHCA 100 μM, resveratrol 95 μM or kaempferol 87 μM; overnight 37° C.
Experimental: as §1, §2, §3

[6] = molecular target: T4, SULT1A1 Rattus norvegicus (Rattus norvegicus, UniProt P17988); test: as above; format: cell-based; conditions: M9, pHCA 100 μM, resveratrol 95 μM or kaempferol 87 μM, overnight 37° C.
T4 construct: 1, 3, 4, 5, and 6 were cloned amplified from liver tissue cDNA; expressed in transfected cells
Experimental: as §1, §2, §3

[7] = tested on: SULT1A1 Sus scrofa domesticus; test: as above; format: cell-based; conditions: E. coli BL21(DE3)pLysS expressing SULT1A1 Sus scrofa domesticus; M9; pHCA 100 μM, resveratrol 95 μM or kaempferol 87 μM; overnight 37° C.
Experimental: as §1, §2, §3

[8] = molecular target: T5, SULT1A1 human (Homo sapiens, UniProt P50225, V223M); test: as above; format: cell-based; conditions: E. coli BL21(DE3)pLysS expressing SULT1A1 human; M9; pHCA 100 μM, resveratrol 95 μM or kaempferol 87 μM; overnight 37° C.
T5 construct: expressed in transfected cells; host or cells: E. coli BL21(DE3)pLysS
Experimental: as §1, §2, §3

[9] = tested on: SULT1C1 Gallus gallus domesticus; test: as above; format: cell-based; conditions: E. coli BL21(DE3)pLysS expressing SULT1C1 Gallus gallus domesticus; M9; pHCA 100 μM, resveratrol 95 μM or kaempferol 87 μM; overnight 37° C.
Experimental: as §1, §2, §3

[10] = tested on: SULT1E1 Gallus gallus domesticus; test: as above; format: cell-based; conditions: E. coli BL21(DE3)pLysS expressing SULT1E1 Gallus gallus domesticus; M9; pHCA 100 μM, resveratrol 95 μM or kaempferol 87 μM; overnight 37° C.
Experimental: as §1, §2, §3

[11] = tested on: D. rerio SULT6B1; test: Percent reduction of compounds by E. coli KRX expressing distantly related sulfotransferases; format: cell-based, Danio rerio; conditions: 100 μM resveratrol, 20 μM kaempferol or 3-hydroxy-4-methoxycinnamic acid
Description: The gene (sequence SEQ ID NO: 102) encoding SULT6B1 (sequence SEQ ID NO: 103) from Danio rerio was codon-optimized for E. coli and synthesized as in example 1.
(§4) The genes were cloned into the vector pETDuet-1 as described in Example 1, and the resulting vectors were transformed into E. coli KRX (obtained from Promega).

[12] = tested on: H. ochraceum DSM 14365 Hoch_6098; test: as above; format: cell-based, Haliangium ochraceum DSM 14365; conditions: E. coli KRX expressing H. ochraceum DSM 14365 Hoch_6098; 100 μM resveratrol, 20 μM kaempferol or 50 μL 3-hydroxy-4-methoxycinnamic acid
Description: The gene (sequence SEQ ID NO: 104) encoding Hoch_6098 (sequence SEQ ID NO: 105) from the bacterium Haliangium ochraceum DSM 14365 was codon-optimized for E. coli and synthesized as in example 1.
as §4

[13] = molecular target: T6, D. rerio SULT1ST1 (Danio rerio, UniProt Q6PH37); test: as above; format: cell-based; conditions: 100 μM resveratrol, 20 μM kaempferol or 3-hydroxy-4-methoxycinnamic acid
T6 construct: expressed in transfected cells; host or cells: E. coli KRX (Promega), vector pETDuet-1
T6 sequence (Q6PH37 1-299): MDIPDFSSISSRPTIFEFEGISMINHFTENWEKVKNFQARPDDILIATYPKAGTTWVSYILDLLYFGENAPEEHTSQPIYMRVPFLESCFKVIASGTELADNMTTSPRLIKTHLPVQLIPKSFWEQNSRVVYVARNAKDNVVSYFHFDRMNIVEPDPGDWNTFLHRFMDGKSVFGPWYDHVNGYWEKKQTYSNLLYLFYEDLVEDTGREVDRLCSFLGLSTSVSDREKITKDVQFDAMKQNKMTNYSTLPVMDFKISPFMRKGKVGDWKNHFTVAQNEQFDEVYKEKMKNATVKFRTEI

[14] = E. coli BL21(DE3)pLysS expressing SULT1A1 Rattus norvegicus (Codon-optimized for E. coli)
[15] = E. coli BL21(DE3)pLysS expressing SULT1A1 Rattus norvegicus

T2 sequence (P17988 whole entry): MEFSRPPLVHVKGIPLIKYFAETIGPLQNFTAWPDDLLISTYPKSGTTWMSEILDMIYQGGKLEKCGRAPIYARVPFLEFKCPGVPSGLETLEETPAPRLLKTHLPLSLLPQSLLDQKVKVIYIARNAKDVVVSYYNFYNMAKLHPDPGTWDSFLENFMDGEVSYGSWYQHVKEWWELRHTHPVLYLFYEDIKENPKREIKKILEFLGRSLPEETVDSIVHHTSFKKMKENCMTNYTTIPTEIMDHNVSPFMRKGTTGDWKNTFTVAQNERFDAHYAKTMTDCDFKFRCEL
T4 sequence (P17988 whole entry): as above
T1 sequence (P17988 whole entry): as above
T5 sequence (P50225 whole entry V223M): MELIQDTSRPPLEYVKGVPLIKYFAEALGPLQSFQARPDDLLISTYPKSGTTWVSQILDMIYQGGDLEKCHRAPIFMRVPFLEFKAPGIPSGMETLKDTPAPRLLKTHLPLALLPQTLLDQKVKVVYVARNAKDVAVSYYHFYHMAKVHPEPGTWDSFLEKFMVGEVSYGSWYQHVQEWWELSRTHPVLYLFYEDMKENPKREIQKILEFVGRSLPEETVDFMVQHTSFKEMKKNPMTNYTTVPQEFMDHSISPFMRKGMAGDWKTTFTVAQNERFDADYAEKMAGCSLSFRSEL
T3 sequence (Q29476 whole entry): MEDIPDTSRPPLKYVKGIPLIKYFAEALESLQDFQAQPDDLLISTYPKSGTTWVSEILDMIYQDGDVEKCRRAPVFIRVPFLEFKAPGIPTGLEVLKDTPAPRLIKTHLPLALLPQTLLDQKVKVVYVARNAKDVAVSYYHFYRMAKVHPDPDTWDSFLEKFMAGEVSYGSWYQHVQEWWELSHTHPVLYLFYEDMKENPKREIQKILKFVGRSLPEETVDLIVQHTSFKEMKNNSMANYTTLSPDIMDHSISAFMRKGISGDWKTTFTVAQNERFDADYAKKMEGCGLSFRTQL

Compound | Percent reduction, SULT1A1 [1] [%] | Percent reduction in concentration, SULT1A1 + CysDNCQ [2] [%] | Percent reduction in concentration, SULT1A1 [2] [%] | Percent reduction in concentration, SULT1E1 [3] [%] | other results
4-ethylguaiacol | 50 | – | – | – | –
O=C(O)CCc1ccc(O)cc1 [3-(4-Hydroxyphenyl)propionic acid] | – | 7 | 3 | 1 | –
COc1ccc(C=CC(=O)O)cc1O [3-Hydroxy-4-methoxycinnamic acid] | – | 62 | 51 | – | –
O=C(O)C(=O)Cc1ccc(O)cc1 [4-Hydroxyphenylpyruvic acid, 4-hydroxyphenylpyruvic acid] | – | 64 | 47 | 100 | –
CC(=O)Nc1ccc(O)cc1 [4-acetamidophenol, reference compound] | – | 30 | 24 | 10 | –
CCc1ccc(O)cc1 [4-ethylphenol] | 100 | – | – | – | –
O=C(O)c1ccc(O)cc1 [4-hydroxybenzoic acid] | – | 6 | 5 | 4 | –
Cc1cc(=O)oc2cc(O)ccc12 [4-methylbelliferone] | 100 | – | – | – | –
O=[N+]([O-])c1ccc(O)cc1 [4-nitrophenol] | 30 | – | – | – | –
C=Cc1ccc(O)cc1 [4-vinylphenol] | 100 | – | – | – | –
O=c1cc(-c2ccc(O)cc2)oc2cc(O)cc(O)c12 [Apigenin] | – | 99 | 41 | 98 | –
COc1cc(/C=C/C(=O)O)ccc1O [Ferulic acid, ferulic acid] | – | 100 | 72 | 67 | –
O=c1cc(-c2ccc(O)c(O)c2)oc2cc(O)cc(O)c12 [Luteolin] | – | 37 | 27 | 0 | –
O=C1C[C@@H](c2ccc(O)cc2)Oc2cc(O)cc(O)c21 [Naringenin] | 60 | – | – | – | –
O=c1c(O)c(-c2ccc(O)c(O)c2)oc2cc(O)cc(O)c12 [Quercetin] | – | 81 | 75 | 74 | –
COc1cc(/C=C/C(=O)O)cc(OC)c1O [Sinapic acid, sinapic acid] | 31 | – | – | – | –
COc1cc(C(=O)O)ccc1O [Vanillic acid, vanillic acid] | – | 39 | 33 | 0 | –
O=c1c(O)c(-c2ccc(O)c(O)c2)oc2cc(O)ccc12 [fisetin] | – | 100 | 98 | 98 | –
O=c1c(O)c(-c2ccc(O)cc2)oc2cc(O)cc(O)c12 [kaempferol, Kaempferol] | – | – | – | – | Percent conversion of the substrate [4]: 60%; Percent conversion of the substrate [5]: 96%; Percent conversion of the substrate [6, 14]: 38%; Percent conversion of the substrate [6, 15]: 95%; Percent conversion of the substrate [7]: 45%; Percent conversion of the substrate [8]: 97%; Percent conversion of the substrate [9]: 80%; Percent conversion of the substrate [10]: 47%; Percent reduction [11]: 44%; Percent reduction [12]: 100%
Oc1ccc(C=Cc2cc(O)cc(O)c2)cc1 [resveratrol] | – | – | – | – | Percent conversion of the substrate [4]: 61%; Percent conversion of the substrate [5]: 100%; Percent conversion of the substrate [6, 14]: 58%; Percent conversion of the substrate [6, 15]: 93%; Percent conversion of the substrate [7]: 88%; Percent conversion of the substrate [8]: 36%; Percent conversion of the substrate [9]: 100%; Percent conversion of the substrate [10]: 100%; Percent reduction [13]: 80%; Percent reduction [12]: 7%
